Source: US10512648B2, “Tyrosine kinase inhibitors for use in a method of treating cancer in association with a reduced caloric intake” (UNIVERSITÀ DEGLI STUDI DI GENOVA, priority 2014, dated 2019)

How the values were obtained:
[1] = system: AKT and ERK1/2 signaling; test: immunoblotting of phospho-AKT, total AKT, phospho-ERK and total ERK in BT474 cell lysates; format: cell-based; details: BT474, 100 nM, 24 h; STS-mimicking conditions compared with Lapatinib alone (FIG. 4B)
Experimental: (§1) With reference to FIGS. 4A-C, 10^5 SKBR3 (FIG. 4A) or BT474 (FIG. 4B) cells were plated in 6 well plates in regular DMEM medium containing 10% FBS. 24 h later, the cell medium was removed and cells were incubated for 24 h either in the same medium (CTR) or in low-glucose (0.5 g/L) DMEM medium containing 1% FBS (STS). 24 h later cells were treated or not with 100 nM Lapatinib. After 24 h, cell were either used for cell lysate preparation or for flow cytometry assays. Cell lysates were used for phospho-AKT (Ser473), total AKT, phospho-ERK (Thr202/Tyr204), and total ERK level detection by immunoblotting (FIGS. 4A and 4B). Flow cytometry (with a FACS Calibur, BD) was used to estimate cell size (FSC) by acquiring 10,000 events per cell sample (FIG. 4C).

[2] = system: SKBR3 cells; test: viability of SKBR3 cells, sulforodhamine B-based assay, CTR vs STS; format: cell-based; details: SKBR3 HER2+ BC cells, 100 nM, 72 h
Experimental: With reference to FIGS. 3A and 3B, 3×10^3 SKBR3 (FIG. 3A) or BT474 (FIG. 3B) cells/well were plated in 96 well plates in regular DMEM medium containing 10% FBS and 2.5 g/L glucose. 24 h later, the cell medium was removed and cells were incubated for 24 h either in the same medium (CTR) or in low-glucose (0.5 g/L) DMEM medium containing 1% FBS (STS). 24 h later cells were treated or not with 100 nM Lapatinib. 72 h later, viability was measured in sulforodhamine B-based assays.
With reference to FIGS. 3D and 3E, BT474 or MCF7 cells were plated as detailed with regard to FIGS. 3A and 3B, treated with 100 nM CP724714 (FIG. 3D) or Lapatinib (FIG. 3E) with or without STS conditions as detailed with respect to FIGS. 3A and 3B before viability was detected.

[3] = system: BT474 cells; test: viability of BT474 cells, sulforodhamine B-based assay, CTR vs STS; format: cell-based; details: BT474 HER2+ BC cells, 100 nM, 72 h
[4] = system: AKT and ERK1/2 signaling; test: immunoblotting of phospho-AKT, total AKT, phospho-ERK and total ERK in SKBR3 cell lysates; format: cell-based; details: SKBR3, 100 nM, 24 h; STS-mimicking conditions compared with Lapatinib alone (FIG. 4A)
Experimental: as §1

[5] = system: MCF7 cells; test: viability of MCF7 cells, with or without STS conditions; format: cell-based
[6] = system: H3122 cells; test: viability of H3122 cells, sulforodhamine B-based assay, regular medium (CTR) vs STS conditions; format: cell-based; details: H3122 NSCLC cells (EML4-ALK translocation); low glucose 0.5 g/L, 1% FBS (STS) vs regular medium; 72 h
Experimental: With reference to FIGS. 1A and 1B, 3×10^3 H3122 cells were plated in 96 well plates in regular DMEM medium containing 10% FBS. 24 h later, the cell medium was removed and cells were incubated for 24 h either in the same medium (CTR) or in low-glucose (0.5 g/L) DMEM medium containing 1% FBS (STS). 24 h later cells were treated or not with the indicated concentrations of Crizotinib or […] (TAE). 72 h later, viability was measured with sulforodhamine B-based assays.

[7] = system: phospho-ERK (Thr202/Tyr204); test: immunoblotting of phospho-ERK and total ERK in H3122 cell lysates; format: cell-based; details: H3122, 400 nM, 24 h; starved cells compared with cells in standard conditions
Experimental: With reference to FIG. 1E, 10^5 H3122 cells were plated in 6 well plates in regular DMEM medium containing 10% FBS. 24 h later, the cell medium was removed and cells were incubated for 24 h either in the same medium (CTR) or in low-glucose (0.5 g/L) DMEM containing 1% FBS (STS). 24 h later cells were treated or not with 400 nM Crizotinib. After 24 h, cell were used for cell lysate preparation and phospho-ERK (Thr202/Tyr204), and total ERK levels were detected by immunoblotting.

[8] = system: H3122 cells; test: H3122 cells in Petri dishes, sulforodhamine B staining after treatment and recovery; format: cell-based; details: H3122, STS conditions, 400 nM, 5 days then 2 days regular medium (FIG. 1C)
Experimental: With reference to FIG. 1C, 10^5 H3122 cells were plated in 60 mm Petri dishes in regular DMEM medium. 24 h later, the cell medium was removed and cells were incubated for 24 h either in regular medium (CTR) or in STS conditions. 24 h later 400 nM Crizotinib was added (or not) to the cells. 5 days later, the cell medium was removed and the cells were cultured for two additional days in regular DMEM medium. 48 h later, the plates were stained with sulforodhamine B and photographed.

[9] = system: H3122 cells engineered to overexpress HRAS or HRAS V12; test: sensitivity of H3122 cells engineered to overexpress HRAS or HRAS V12; format: cell-based; details: data not shown
[10] = system: A549 cells; test: viability of A549 cells, sulforodhamine B-based assay, with or without STS; format: cell-based
Experimental: With reference to FIG. 1D, 3×10^3 A549 cells were plated in 96 well plates and treated with Crizotinib in the presence or absence of STS, as in the experiments of FIGS. 1A and 1B, before viability was measured in sulforodhamine B-based assays.

[11] = system: H3122 xenografts; test: H3122 xenograft growth in mice; format: in vivo, BALB/c athymic mice (nu+/nu+)
Experimental: With reference to FIG. 2A, six- to eight-week-old BALB/c athymic mice (nu+/nu+) were injected s.c. with 5×10^6 H3122 cells. When tumors became palpable, mouse were randomly assigned to one of four arms (six mice per treatment arm): control—normal diet (—); Crizotinib—normal diet with 3 cycles of Crizotinib (25 mg/kg/day via oral gavage for 5 days a week, Mon-Fri); STS [fasting (water only) for 48 h (Sun-Tue) for three cycles at 1-week intervals]; STS+Crizotinib. Tumor size was measured daily and tumor volume was calculated using the formula: tumor volume=(w^2×W)×π/6, where “w” and “W” are “minor side” and “major side” (in mm), respectively. At the end of treatment, mice were euthanized and tumor masses were excised and weighted (see FIG. 2B). Mouse weight was also monitored daily.

SMILES | inhibition of AKT and ERK1/2 signaling [1] | sensitization by STS conditions (viability of SKBR3 cells) [2] | sensitization by STS conditions (viability of BT474 cells) [3] | inhibition of AKT and ERK1/2 signaling [4] | sensitivity of MCF7 cells (viability) ([5]; MCF7 cells without HER2 amplification, 100 nM) | effect of STS on activity in MCF7 cells ([5]; MCF7 cells, STS vs CTR) | effect of STS conditions on activity (viability of H3122 cells) [6] | blocking of MAPK pathway signaling (ERK1/2 phosphorylation) [7] | killing of NSCLC cells [8] | sensitivity of HRAS or HRAS V12 overexpressing H3122 cells [9] | sensitivity of A549 cells (viability) ([10]; A549 NSCLC cells without EML4-ALK translocation) | effect of STS on activity in A549 cells ([10]; A549 cells, STS vs regular medium) | activity on H3122 xenografts of the combination with fasting ([11]; 25 mg/kg/day oral gavage plus 48 h fasting cycles, compared with each treatment alone, p<0.05) | growth of H3122 xenografts ([11]; normal diet, 25 mg/kg/day oral gavage, 5 days a week, 3 cycles)
CS(=O)(=O)CCNCc1ccc(-c2ccc3ncnc(Nc4ccc(OCc5cccc(F)c5)c(Cl)c4)c3c2)o1 [Lapatinib] | more pronounced inhibition | strongly sensitized | strongly sensitized | more pronounced inhibition | insensitive | failed to enhance the activity |  |  |  |  |  |  |  | 
COc1cc(N2CCC(N3CCN(C)CC3)CC2)ccc1Nc1ncc(Cl)c(Nc2ccccc2S(=O)(=O)C(C)C)n1 [TAE684] |  |  |  |  |  |  | strongly potentiated |  |  |  |  |  |  | 
C[C@@H](Oc1cc(-c2cnn(C3CCNCC3)c2)cnc1N)c1c(Cl)ccc(F)c1Cl [Crizotinib] |  |  |  |  |  |  | strongly potentiated | more effective at blocking signaling through the MAPK pathway | virtual complete killing | resistant | insensitive | did not increase the activity | more active than either type of treatment alone | effectively reduced the growth
